The text below walks through data of ChEMBL document CHEMBL1150044, “Brominated polyacetylenes from the Philippines sponge Diplastrella sp” (J Nat Prod, 2003).

Structures can show the parent of a compound that is named as a salt.

This assay deals with Human immunodeficiency virus type 1 integrase (Human immunodeficiency virus 1, UniProt Q7ZJM1). Nature of the assay: Inhibition of HIV1 recombinant integrase.
Sequence of Human immunodeficiency virus type 1 integrase (Q7ZJM1 whole entry): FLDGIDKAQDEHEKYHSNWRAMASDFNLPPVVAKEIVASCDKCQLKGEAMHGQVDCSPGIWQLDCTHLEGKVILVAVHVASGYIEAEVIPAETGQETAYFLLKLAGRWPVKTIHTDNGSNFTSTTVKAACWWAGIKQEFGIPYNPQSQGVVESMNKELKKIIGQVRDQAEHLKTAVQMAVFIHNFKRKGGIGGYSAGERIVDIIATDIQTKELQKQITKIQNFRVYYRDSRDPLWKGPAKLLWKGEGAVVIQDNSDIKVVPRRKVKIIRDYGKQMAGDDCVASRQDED
In the case of `O=S(=O)(O)OCCC#CC#CCCCCC#CC#C/C=C/Br`, the IC50 was 78.3 µM.
As for `O=S(=O)(O)OCC(O)C#CC#CCCCCCCC#C/C=C/Br` (stereo not drawn), the 50% inhibitory concentration (IC50) is 74.4 µM.
Next, `OCC(O)C#CC#CCCCCCCC#C/C=C/Br` (stereo not drawn) [DIPLYNE A]: more than 155 µM; `OCC(O)C#CC#CCCCCCCC#C/C=C\Br` (stereo not drawn) [DIPLYNE B]: more than 155 µM.
With `O=S(=O)(O)OCC(O)C#CC#CCCCCCCCC/C=C/Br` (stereo not drawn) [DIPLYNE C SULFATE] the figure was 73.7 µM.
With `OCC(O)C#CC#CCCCCCCCC/C=C/Br` (stereo not drawn) [DIPLYNE C], the IC50 is more than 153 µM.
Regarding `OCC(O)C#CC#CCCCCC#CC#C/C=C/Br` (stereo not drawn) [DIPLYNE D], the IC50 is more than 157 µM.
With `OCC(O)C#CC#CCCCC/C=C/C#C/C=C/Br` (stereo not drawn) [DIPLYNE E] the figure was more than 156 µM.
